One data set has as its system 147EF. The data set can be described thus: alamarBlue cell viability, BTSC 147EF. It counts as cell-based, human. Particulars: Homo sapiens, Table 4 library screen. The method in brief: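 Glioma stem-cell spheres were dissociated to single cells and plated at 1500 cells/well (3000 cells/well in the repeat set). Serial dilutions were added one day after plating: 5 μM–100 nM in the first set, 25 μM–10 nM in the second. Viability was read by alamarBlue three days later, in triplicate.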

The next data set addresses T1, ERK1 (Homo sapiens, UniProt P27361).
T1 construct: purchased Reaction Biology Corporation
The data set can be described thus: HotSpot radiometric kinase assay, ERK1. It is filed as biochemical. Particulars: 5 uM compound, 10 μM ATP, duplicate (Data 1, Data 2); for remaining activity at 5 µM: read-out: % Enzyme activity relative to DMSO (control), ERK1.

In another data set the target is T2, JAK2 (Homo sapiens, UniProt O60674).
T2 construct: purchased Reaction Biology Corporation
T2 sequence (O60674 whole entry): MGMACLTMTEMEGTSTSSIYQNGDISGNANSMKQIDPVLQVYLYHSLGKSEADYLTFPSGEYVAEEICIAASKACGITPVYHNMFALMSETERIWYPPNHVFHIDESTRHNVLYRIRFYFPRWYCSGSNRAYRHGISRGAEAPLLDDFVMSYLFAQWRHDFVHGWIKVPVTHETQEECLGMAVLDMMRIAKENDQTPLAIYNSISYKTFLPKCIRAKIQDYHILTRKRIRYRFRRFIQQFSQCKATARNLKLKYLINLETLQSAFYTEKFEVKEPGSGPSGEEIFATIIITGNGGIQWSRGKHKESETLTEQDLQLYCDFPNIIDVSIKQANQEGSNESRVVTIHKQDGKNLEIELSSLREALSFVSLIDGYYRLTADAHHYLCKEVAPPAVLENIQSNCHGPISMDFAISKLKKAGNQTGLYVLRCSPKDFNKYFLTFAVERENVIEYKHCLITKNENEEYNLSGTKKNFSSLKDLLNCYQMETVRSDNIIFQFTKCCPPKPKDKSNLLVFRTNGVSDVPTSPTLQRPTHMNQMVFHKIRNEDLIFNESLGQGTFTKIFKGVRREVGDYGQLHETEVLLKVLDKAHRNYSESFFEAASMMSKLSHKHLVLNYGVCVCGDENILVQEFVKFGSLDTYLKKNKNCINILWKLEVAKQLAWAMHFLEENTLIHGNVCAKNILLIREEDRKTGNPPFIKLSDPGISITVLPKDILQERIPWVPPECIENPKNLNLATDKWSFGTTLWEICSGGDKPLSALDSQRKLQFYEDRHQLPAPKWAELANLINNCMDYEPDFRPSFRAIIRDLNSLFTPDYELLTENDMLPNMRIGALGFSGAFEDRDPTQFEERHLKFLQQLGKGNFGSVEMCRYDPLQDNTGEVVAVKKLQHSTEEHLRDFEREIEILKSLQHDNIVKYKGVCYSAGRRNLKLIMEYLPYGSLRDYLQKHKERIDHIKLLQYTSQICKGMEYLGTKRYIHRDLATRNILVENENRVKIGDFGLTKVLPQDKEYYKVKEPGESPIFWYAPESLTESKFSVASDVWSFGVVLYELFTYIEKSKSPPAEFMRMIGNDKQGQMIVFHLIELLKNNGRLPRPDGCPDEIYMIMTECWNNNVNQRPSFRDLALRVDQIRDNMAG
Nature of the data set: HotSpot radiometric kinase assay, JAK2. It counts as biochemical. The conditions noted are these: 5 uM compound, 10 μM ATP, duplicate (Data 1, Data 2); for remaining activity at 5 µM: read-out: % Enzyme activity relative to DMSO (control), JAK2. On the procedure:
Briefly, this assay employs a radiometric detection system to measure kinase phosphoryl transfer activity.
Test compound was evaluated at a single dose of 5 μM in duplicate mode. […] Reactions were carried out at 10 μM ATP.
Preliminary screen against AKT, c-Src, ERK1, JaK1 and JaK2 was performed at Reaction Biology Corporation (www.reactionbiology.com, Malvern, Pa.) using the “HotSpot” assay platform. Specific kinase/substrate pairs along with their required cofactors were prepared in reaction buffer; 20 mM Hepes pH 7.5, 10 mM MgCl2, 1 mM EGTA, 0.02% Brij35, 0.02 mg/ml BSA, 0.1 mM Na3VO4, 2 mM DTT, 1% DMSO. The screen was completed in duplicate at a single concentration of 5 μM. The reaction well with the subject compound was treated with a mixture of ATP (Sigma, St. Louis Mo.) and ^33P ATP (Perkin Elmer, Waltham Mass.) to a final concentration of 10 μM. […] Reaction wells were kept at room temperature for 120 minutes, followed by spotting each of the reactions onto P81 ion exchange filter paper (Whatman Inc., Piscataway, N.J.). […] Background was subtracted using control reactions and the kinase activity data was expressed as the percent remaining kinase activity in test samples compared to vehicle (dimethyl sulfoxide) reactions. All IC50 values (table 3) and curve fitting were produced using Prism (GraphPad Software) (FIG. 5).

The test system of data set [1] is Breast cancer cells (MDA-MB-468). The data set can be described thus: IC50 in breast cancer cells. The conditions noted are these: Homo sapiens, Table 6. It counts as cell-based.
The next data set relates to Prostate (DU145). The data set can be described thus: IC50 in prostate cancer cells. It is filed as cell-based. Particulars: Homo sapiens, DU-145; Table 6.
In data set [2] the test system is leukemia cancer cells (AML-2). The data set can be described thus: IC50 in leukemia cancer cells. It counts as cell-based. Particulars: Table 6.
Another data set concerns 127EF. Nature of the data set: alamarBlue cell viability, BTSC 127EF. It is filed as cell-based. Particulars: Homo sapiens, read-out: EC50 against 127EF. An excerpt: . BTSC spheres were dissociated to single cells with the enzyme Accumax (Innovative Technologies), seeded at 1500 cells/96-well and treated with drug or vehicle (DMSO) one day after plating. Cytotoxicity studies were repeated independently at Sickkids Hospital using BTSC lines 25M, 67EF, 73EF, 84EF and 127EF. BTSC spheres were dissociated to single cells as above and plated in 96 well plates in triplicate at 3000 cells/96-well. In both sets of experiments drugs were used as serial dilutions within the range of 5 μM to 100 nM in the first set and 25 μM to 10 nM. Cell viability following drug treatment was assessed three days later using the ALAMARBLUE™ assay (Invitrogen) according to the manufacturer's instructions. All culture experiments were performed in triplicate with a minimum of three wells per condition. Table 4 below illustrates a screen of the library against a number of BTSCs using ALAMARBLUE™ assay.

Data set [3] has as its system patient-derived pancreatic cancer line (Pa03C). Nature of the data set: 3D culture cytotoxicity (Alamar Blue) with and without cancer-associated fibroblasts. It is filed as cell-based. Particulars: presence and absence of CAFs, Alamar Blue Day 11. On the procedure:
FIG. 11 illustrates the effects of STAT3 inhibitor 31 on low passage patient-derived pancreatic cancer line (Pa03C) plated in a 96-well plate coated with 1% Noble Agar in media containing 3% Matrigel, with and without cancer-associated fibroblasts. The ratio of the tumor to CAFs is 1:4. Tumor spheres begin to form around Day 3, and STAT3 inhibitor 31 added at Day 4 and 8. Cytotoxicity is assessed by fluorescence using Alamar Blue assay on Day 11.

Data set [4] deals with multiple myeloma tumor cell lines. The data set can be described thus: MTT cytotoxicity in multiple myeloma cell lines. The conditions noted are these: 12 of 15 multiple myeloma cell lines, read-out: ED50 (the source's name). It counts as cell-based. On the procedure: For assessing MM cell viability, HMCL cells were seeded in 96-well plates in triplicate at a density of 20,000 cells/well and incubated with increasing concentrations of 16i and 21h or DMSO control and cell viability assessed by MTT (3-(4,5-dimethylthiazol)-2,5-diphenyl tetrazolium) colorimetric analysis. Results are reported at FIG. 12.

The nature of data set [5]: blood brain barrier permeability: plasma and brain concentrations by LC-MS. It is filed as in vivo, mice. Particulars: for concentration at 30 min: mouse, plasma, intraperitoneal. On the procedure: Compounds 31 and 32 were given to three mice at 10 mg/kg BID via IP for five days and blood was collected at two time points (30 min. and 300 min.) for all mice. Plasma was separated from blood by centrifugation and stored at −20° C. until analysis. Brain was also collected from one mouse at each dose. Concentrations of compounds were determined using LC-MS.

Another data set relates to BT73 brain tumours. The data set can be described thus: BT73 orthotopic xenograft, in vivo on-target assessment. Particulars: 10 mg/kg i.p., 10 doses.
Where [6] appears, read: remaining activity, listed as SH-05-07.

The results in this text go back to patent US9650399B2, “Salicylic acid derivatives, pharmaceutically acceptable salt thereof, composition thereof and method of use thereof” (The Governing Council of the University of Toronto, priority 2012, dated 2017).

T1 sequence (P27361 whole entry): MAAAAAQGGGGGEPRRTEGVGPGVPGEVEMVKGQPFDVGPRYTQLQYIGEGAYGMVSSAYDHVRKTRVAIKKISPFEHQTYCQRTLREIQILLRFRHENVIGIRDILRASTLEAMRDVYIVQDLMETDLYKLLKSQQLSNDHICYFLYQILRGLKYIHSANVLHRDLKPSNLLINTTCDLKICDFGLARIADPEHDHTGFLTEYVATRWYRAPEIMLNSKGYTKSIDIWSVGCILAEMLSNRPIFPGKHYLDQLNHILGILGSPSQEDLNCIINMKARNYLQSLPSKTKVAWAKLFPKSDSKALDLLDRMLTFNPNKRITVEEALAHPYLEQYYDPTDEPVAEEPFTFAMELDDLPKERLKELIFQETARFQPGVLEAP
Experimental for BT73 brain tumours: For in vivo on-target Assessment, BTIC spheres from BT73 were enzymatically dissociated (Accumax, eBioscience) to single cell suspensions. Cells were washed in PBS and re-suspended at 10^5 cells per 3 μL media for orthotopic xenografts. Six non-obese diabetic severe combined immunodeficiency (NOD SCID) mice were each xenografted with 10^5 BT73 cells stereotactically implanted into the right striatum. Seven days following implants, mice were randomized into vehicle and drug cohorts and injected i.p., four days on, three days off, for a total of 10 doses. […] Vehicle-treated mice received an equal volume of 50% PEG 300 in water. Mice were euthanized with a lethal dose of sodium pentobarbitol, followed by transcardiac perfusion of 4% paraformaldehyde (PFA) two hours following injection of the last drug dose. […] Hematoxylin and eosin (H&E) staining was performed according to standard protocols. Immunohistochemistry was performed by incubating with primary antibodies overnight at 4° C. followed by the Vectastain Elite mouse IgG or rabbit IgG kits (Vector Laboratories) and detection with DAB substrate and hematoxylin counterstaining (Sigma-Aldrich) according to the manufacturer's instructions. Primary antibodies included—STAT3 S727 (Cell Signaling Technology) and Ki67 (Novocastra). Secondary antibodies included biotin conjugated goat anti-rabbit (Jackson Immunoresearch).) Xenograft tumor cells undergoing apoptosis were also detected with the ApopTag Plus Peroxidase In Situ Apoptosis Detection Kit (Chemicon International, Inc., Temecula, Calif.) according to the manufacturer's instructions (TUNEL assay).

In the case of `CN(CC(=O)N(Cc1ccc(C2CCCCC2)cc1)c1ccc(C(=O)NO)cc1)S(=O)(=O)c1c(F)c(F)c(F)c(F)c1F` [Compound 32, 4-(N-(4-cyclohexylbenzyl)-2-(2,3,4,5,6-pentafluoro-N-methylphenylsulfonamido)acetamido)-N-hydroxybenzamide], the IC50 in the data set with 147EF is 588 nM; in data set [1] it was less than 1000 nM; in the data set on Prostate (DU145), 15900 nM; in data set [2], less than 1000 nM. The figures for the remaining activity at 5 µM at ERK1 and at JAK2 were 110% and 67.1%, respectively. Besides, at ERK1 (setting [6]), the “% Enzyme activity relative to DMSO (control), ERK1” value is 106.21%. For the same molecule, the “% Enzyme activity relative to DMSO (control), JAK2” value at JAK2 (setting [6]) is given as 61.26%.
On to `CN(CC(=O)N(Cc1ccc(C2CCCCC2)cc1)c1ccc(C(=O)O)cc1)S(=O)(=O)c1c(F)c(F)c(F)c(F)c1F` [Compound 31, 4-(N-(4-cyclohexylbenzyl)-2-(2,3,4,5,6-pentafluoro-N-methylphenylsulfonamido)acetamido)benzoic acid], for which the IC50 in the data set on 147EF is 315 nM; in data set [1], less than 1000 nM; in the data set on Prostate (DU145), 11300 nM; in data set [2], less than 1000 nM. Moreover, the EC50 with 127EF was 66 ± 33.9 nM; in [4] it was 2000 to 6000 nM. For the same molecule, the remaining activity at 5 µM worked out at 111% on ERK1 and 62% at JAK2. In data set [3], the “killing of tumor cells grown in 3D cultures” value is given as “effectively kills tumor cells”. The “change of plasma concentration between 30 min. and 300 min” value in data set [5] (10 mg/kg BID IP) was “did not change significantly”. Also, the “concentration in the brain” value in [5] (10 mg/kg dosing (FIG. 18)) was “up to 300 nM”; in data set [5] (10 mg/kg dosing, IP BID), “about 0.3 μM”; in data set [5] (dosing 10 mg/kg and 25 mg/kg, LCMS (FIG. 17)) it was “up to 0.7 μM”. Further, the “compound in plasma after 5 hr” value in data set [5] (both doses (10 and 25 mg/kg)) is “no compound was detected”. Further, the concentration at 30 min in [5] (10 mg/kg) worked out at 240 nM; in data set [5] (25 mg/kg), 580 nM. In addition, the “activated phospho-STAT immunohistochemical staining” value in the data set with BT73 brain tumours is “reduced immunohistochemical staining”. For the same molecule, the “apoptosis, TUNEL staining” value in the data set on BT73 brain tumours is given as “Increased TUNEL staining”. In the data set with BT73 brain tumours, the “expression of proliferation marker Ki67” value is reported as “Decreased expression of proliferation marker Ki67”. Moreover, the “tumour cells, hematoxylin/eosin staining” value in the data set on BT73 brain tumours was “significant decrease in tumour cells”.
